Assay results reported in PubChem BioAssay AID1918933 (Molecular Pharmacology Branch, DTP, NCI, 2023).
pIC50: −log10 of the molar value.

System: 186277-243-T-J2-PDC complex spheroid viability
Test: Anticancer human tumor 186277-243-T-J2-PDC patient-derived colon adenocarcinoma cell line growth inhibition
Details: for pIC50: curve of first compound; for viability, T/C: stronger effect = lower value
Method in brief: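 Multicellular complex spheroids of tumor cells with human endothelial cells (HUVEC) and mesenchymal stem cells; the LSD1 inhibitor iadademstat was combined with standard-of-care or investigational agents. Top concentration at or near clinical Cmax, half-log dilutions; final DMSO ≤0.25%.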

[1] = second compound 0.1 µM, first compound 0.0316 µM
[2] = second compound 0.1 µM, first compound 0.1 µM
[3] = second compound 0.1 µM, first compound 0.316 µM
[4] = second compound 0.1 µM, first compound 1 µM
[5] = second compound 0.1 µM, first compound 3.16 µM
[6] = second compound 0.1 µM, first compound 10 µM
[7] = second compound 0.316 µM, first compound 0.0316 µM
[8] = second compound 0.316 µM, first compound 0.1 µM
[9] = second compound 0.316 µM, first compound 0.316 µM
[10] = second compound 0.316 µM, first compound 1 µM
[11] = second compound 0.316 µM, first compound 3.16 µM
[12] = second compound 0.316 µM, first compound 10 µM
[13] = second compound 1 µM, first compound 0.0316 µM
[14] = second compound 1 µM, first compound 0.1 µM
[15] = second compound 1 µM, first compound 0.316 µM
[16] = second compound 1 µM, first compound 1 µM
[17] = second compound 1 µM, first compound 3.16 µM
[18] = second compound 1 µM, first compound 10 µM
[19] = second compound 3.16 µM, first compound 0.0316 µM
[20] = second compound 3.16 µM, first compound 0.1 µM
[21] = second compound 3.16 µM, first compound 0.316 µM
[22] = second compound 3.16 µM, first compound 1 µM
[23] = second compound 3.16 µM, first compound 3.16 µM
[24] = second compound 3.16 µM, first compound 10 µM
[25] = second compound 10 µM, first compound 0.0316 µM
[26] = second compound 10 µM, first compound 0.1 µM
[27] = second compound 10 µM, first compound 0.316 µM
[28] = second compound 10 µM, first compound 1 µM
[29] = second compound 10 µM, first compound 3.16 µM
[30] = second compound 10 µM, first compound 10 µM
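Note: 7 day exposure to compounds.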
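Throughout, for viability, T/C: 100% = DMSO vehicle control viability.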

Compound | pIC50 (second compound 0.1 µM) | pIC50 (second compound 0.316 µM) | pIC50 (second compound 1 µM) | pIC50 (second compound 3.16 µM) | pIC50 (second compound 10 µM) | viability, T/C [1] [%] | viability, T/C [2] [%] | viability, T/C [3] [%] | viability, T/C [4] [%] | viability, T/C [7] [%] | viability, T/C [8] [%] | viability, T/C [9] [%] | viability, T/C [10] [%] | viability, T/C [13] [%] | viability, T/C [14] [%] | viability, T/C [15] [%] | viability, T/C [16] [%] | viability, T/C [19] [%] | viability, T/C [20] [%] | viability, T/C [21] [%] | further results
CC(C)c1c(-c2ccccc2)nc2c(C#N)c[nH]n2c1=O + NC1CC1c1ccc(-c2cccc(O)c2)cc1 | < 5.00 | < 5.00 | < 5.00 | < 5.00 | < 5.00 | 114 | 101 | 106 | 85.4 | 95.9 | 107 | 104 | 100 | 106 | 99.8 | 93 | 96.2 | 101 | 106 | 111 | viability, T/C [5]: 88.1%; viability, T/C [6]: 72.5%; viability, T/C [11]: 85.9%; viability, T/C [12]: 78.5%; viability, T/C [17]: 95.4%; viability, T/C [18]: 73.7%; viability, T/C [22]: 108%; viability, T/C [23]: 96.9%; viability, T/C [24]: 80.9%; viability, T/C [25]: 88.9%; viability, T/C [26]: 86%; viability, T/C [27]: 102%; viability, T/C [28]: 97.6%; viability, T/C [29]: 85%; viability, T/C [30]: 74.6%
CC1COCCN1c1cc(-c2ccnn2C)c2ccnc(-c3ccn[nH]3)c2n1 (stereo not given) + NC1CC1c1ccc(-c2cccc(O)c2)cc1 | > 8.50 | > 8.50 | > 8.50 | > 8.50 | > 8.50 | 9.71 | 8.39 | 9.56 | 6.55 | 10.2 | 8.74 | 8.51 | 6.53 | 10.2 | 7.9 | 8.7 | 5.94 | 10.9 | 8.9 | 9.05 | viability, T/C (second compound 0.1 µM, first compound 0.00316 µM): 20.3%; viability, T/C (second compound 0.1 µM, first compound 0.01 µM): 15.9%; viability, T/C (second compound 0.316 µM, first compound 0.00316 µM): 19.9%; viability, T/C (second compound 0.316 µM, first compound 0.01 µM): 16.7%; viability, T/C (second compound 1 µM, first compound 0.00316 µM): 20.7%; viability, T/C (second compound 1 µM, first compound 0.01 µM): 15.4%; viability, T/C (second compound 3.16 µM, first compound 0.00316 µM): 22.6%; viability, T/C (second compound 3.16 µM, first compound 0.01 µM): 17.3%; viability, T/C [22]: 6.86%; viability, T/C (second compound 10 µM, first compound 0.00316 µM): 18%; viability, T/C (second compound 10 µM, first compound 0.01 µM): 15.5%; viability, T/C [25]: 10.1%; viability, T/C [26]: 8.33%; viability, T/C [27]: 8.45%; viability, T/C [28]: 7.35%
COc1ccc([C@@H](O)c2cc(-c3ncnc4cc(N5CCOCC5)ccc34)c(F)cc2Cl)nn1 + NC1CC1c1ccc(-c2cccc(O)c2)cc1 | 5.27 | 5.33 | 5.36 | 5.36 | 5.43 | 105 | 109 | 112 | 96.3 | 109 | 108 | 110 | 89.1 | 107 | 113 | 114 | 80.9 | 110 | 118 | 97.1 | viability, T/C [5]: 81.8%; viability, T/C [6]: 14%; viability, T/C [11]: 70.8%; viability, T/C [12]: 12.8%; viability, T/C [17]: 68.7%; viability, T/C [18]: 12.9%; viability, T/C [22]: 102%; viability, T/C [23]: 64.7%; viability, T/C [24]: 11.7%; viability, T/C [25]: 97.7%; viability, T/C [26]: 103%; viability, T/C [27]: 106%; viability, T/C [28]: 91.3%; viability, T/C [29]: 57.8%; viability, T/C [30]: 5.72%
